The values below come from PubChem BioAssay AID1259407 (Chemical Carcinogenesis Research Information System (CCRIS), 2018).

The structures appear in SMILES notation. Calls of active or inactive are those of the source. How the calls were made is not given here.

In the series the test system is CCRIS mutagenicity, Ames/micronucleus/aberration tests. Put plainly: CCRIS mutagenicity studies.
Where [1] appears, read: Test System: AMES SALMONELLA TYPHIMURIUM, Strain/Indicator: TA98, Metabolic Activation: NONE, Method: STANDARD PLATE.
The mark [2] stands for this setting: Test System: AMES SALMONELLA TYPHIMURIUM, Strain/Indicator: TA100, Metabolic Activation: NONE, Method: STANDARD PLATE.

With `ClNc1nc(NCl)nc(NCl)n1`, the mutagenic call (Test System: AMES SALMONELLA TYPHIMURIUM, Strain/Indicator: TA98, Metabolic Activation: HAMSTER, LIVER, S-9, AROCLOR 1254, Method: STANDARD PLATE) was “inactive; negative”; the mutagenic call under setting [1] was “inactive; negative”; the mutagenic call (Test System: AMES SALMONELLA TYPHIMURIUM, Strain/Indicator: TA98, Metabolic Activation: RAT, LIVER, S-9, AROCLOR 1254, Method: STANDARD PLATE) is “inactive; negative”; the mutagenic call (Test System: AMES SALMONELLA TYPHIMURIUM, Strain/Indicator: TA100, Metabolic Activation: HAMSTER, LIVER, S-9, AROCLOR 1254, Method: STANDARD PLATE) is “inactive; negative”; the mutagenic call under setting [2] was “inactive; negative”; the mutagenic call (Test System: AMES SALMONELLA TYPHIMURIUM, Strain/Indicator: TA100, Metabolic Activation: RAT, LIVER, S-9, AROCLOR 1254, Method: STANDARD PLATE) was “inactive; negative”. Also, the mutagenic call (Test System: AMES SALMONELLA TYPHIMURIUM, Strain/Indicator: TA1535, Metabolic Activation: HAMSTER, LIVER, S-9, AROCLOR 1254, Method: STANDARD PLATE) is “inactive; negative”; the mutagenic call (Test System: AMES SALMONELLA TYPHIMURIUM, Strain/Indicator: TA1535, Metabolic Activation: NONE, Method: STANDARD PLATE) was “inactive; negative”; the mutagenic call (Test System: AMES SALMONELLA TYPHIMURIUM, Strain/Indicator: TA1535, Metabolic Activation: RAT, LIVER, S-9, AROCLOR 1254, Method: STANDARD PLATE) was “inactive; negative”; the mutagenic call (Test System: AMES SALMONELLA TYPHIMURIUM, Strain/Indicator: TA1537, Metabolic Activation: HAMSTER, LIVER, S-9, AROCLOR 1254, Method: STANDARD PLATE) is “inactive; negative”; the mutagenic call (Test System: AMES SALMONELLA TYPHIMURIUM, Strain/Indicator: TA1537, Metabolic Activation: NONE, Method: STANDARD PLATE) was “inactive; negative”; the mutagenic call (Test System: AMES SALMONELLA TYPHIMURIUM, Strain/Indicator: TA1537, Metabolic Activation: RAT, LIVER, S-9, AROCLOR 1254, Method: STANDARD PLATE) is “inactive; negative”. Also, the mutagenic call is, setting by setting: (Test System: AMES SALMONELLA TYPHIMURIUM, Strain/Indicator: TA1538, Metabolic Activation: HAMSTER, LIVER, S-9, AROCLOR 1254, Method: STANDARD PLATE) “inactive; negative”; (Test System: AMES SALMONELLA TYPHIMURIUM, Strain/Indicator: TA1538, Metabolic Activation: NONE, Method: STANDARD PLATE) “inactive; negative”; (Test System: AMES SALMONELLA TYPHIMURIUM, Strain/Indicator: TA1538, Metabolic Activation: RAT, LIVER, S-9, AROCLOR 1254, Method: STANDARD PLATE) “inactive; negative”; (Test System: MOUSE LYMPHOMA, Strain/Indicator: L5178Y (TK+/TK-), Metabolic Activation: NONE, Method: SUSPENSION/PLATE) “inactive; negative. reevaluation of results: negative”; (Test System: Mouse lymphoma, Strain/Indicator: L5178Y (tk+/tk-), Metabolic Activation: Rat, Liver, S-9, Aroclor 1254, Method: Suspension/plate) “active; positive”.
On to `C/C=C1\CC(C)C(C)(OC(C)=O)C(=O)OCC2=C3C(CC[N+]3(C)C=C2)OC1=O` (centres undefined), for which the mutagenic call runs as follows: (Test System: AMES SALMONELLA TYPHIMURIUM, Strain/Indicator: TA100, Metabolic Activation: HAMSTER, LIVER, S-9, PCB, Method: PREINCUBATION) “active; positive”; (Test System: AMES SALMONELLA TYPHIMURIUM, Strain/Indicator: TA100, Metabolic Activation: RAT, LIVER, S-9, PCB, Method: PREINCUBATION) “active; positive”.
Consider `O=[N+]([O-])c1ccc2c(c1)Oc1cc([N+](=O)[O-])ccc1O2`, for which the mutagenic call reads like this: (Test System: AMES SALMONELLA TYPHIMURIUM, Strain/Indicator: TA98(1,8-DNP6), Metabolic Activation: NONE, Method: PREINCUBATION) “active; positive”; (Test System: AMES SALMONELLA TYPHIMURIUM, Strain/Indicator: TA98(1,8-DNP6), Metabolic Activation: NONE, Method: SUSPENSION) “active; positive”; (Test System: AMES SALMONELLA TYPHIMURIUM, Strain/Indicator: TA98(1,8-DNP6), Metabolic Activation: RAT, LIVER, S-9, PCB (5%), Method: PREINCUBATION) “active; positive”; (Test System: AMES SALMONELLA TYPHIMURIUM, Strain/Indicator: TA98(NR), Metabolic Activation: NONE, Method: PREINCUBATION) “inactive; negative”; (Test System: AMES SALMONELLA TYPHIMURIUM, Strain/Indicator: TA98(NR), Metabolic Activation: NONE, Method: SUSPENSION) “inactive; negative”; (Test System: AMES SALMONELLA TYPHIMURIUM, Strain/Indicator: TA98(NR), Metabolic Activation: RAT, LIVER, S-9 (15%), Method: PREINCUBATION) “active; positive”. The mutagenic call was “active; positive” (Test System: AMES SALMONELLA TYPHIMURIUM, Strain/Indicator: TA98(NR), Metabolic Activation: RAT, LIVER, S-9, 3-METHYLCHOLANTHRENE (15%), Method: PREINCUBATION); “active; positive” (Test System: AMES SALMONELLA TYPHIMURIUM, Strain/Indicator: TA98(NR), Metabolic Activation: RAT, LIVER, S-9, BETA-NAPHTHOFLAVONE (15%), Method: PREINCUBATION); “active; positive” (Test System: AMES SALMONELLA TYPHIMURIUM, Strain/Indicator: TA98(NR), Metabolic Activation: RAT, LIVER, S-9, PCB (5 OR 15%), Method: PREINCUBATION); “active; positive” (Test System: AMES SALMONELLA TYPHIMURIUM, Strain/Indicator: TA98(NR), Metabolic Activation: RAT, LIVER, S-9, PHENOBARBITAL (15%), Method: PREINCUBATION); “active; positive” (Test System: AMES SALMONELLA TYPHIMURIUM, Strain/Indicator: TA98, Metabolic Activation: NONE, Method: PREINCUBATION); “active; positive” (Test System: AMES SALMONELLA TYPHIMURIUM, Strain/Indicator: TA98, Metabolic Activation: NONE, Method: SUSPENSION). In addition, the mutagenic call is, setting by setting: (Test System: AMES SALMONELLA TYPHIMURIUM, Strain/Indicator: TA98, Metabolic Activation: RAT, LIVER, S-9, PCB (5%), Method: PREINCUBATION) “active; positive”; (Test System: AMES SALMONELLA TYPHIMURIUM, Strain/Indicator: TA98, Metabolic Activation: RAT, LIVER, S-9, PCB, Method: SUSPENSION) “active; positive”; (Test System: AMES SALMONELLA TYPHIMURIUM, Strain/Indicator: TA100, Metabolic Activation: NONE, Method: PREINCUBATION) “inactive; negative”; (Test System: AMES SALMONELLA TYPHIMURIUM, Strain/Indicator: TA100, Metabolic Activation: NONE, Method: SUSPENSION) “inactive; negative”; (Test System: AMES SALMONELLA TYPHIMURIUM, Strain/Indicator: TA100, Metabolic Activation: RAT, LIVER, S-9, PCB (5%), Method: PREINCUBATION) “inactive; negative”; (Test System: AMES SALMONELLA TYPHIMURIUM, Strain/Indicator: TA100, Metabolic Activation: RAT, LIVER, S-9, PCB, Method: SUSPENSION) “active; positive”.
In the case of `C=C(C)C1CCC(=C)C2C3=C(C[C@H](C)C3=O)C(=O)C(C)=C[C@@H]12` (some centres undefined), the mutagenic call under setting [1] is “inactive; negative”; the mutagenic call (Test System: AMES SALMONELLA TYPHIMURIUM, Strain/Indicator: TA98, Method: STANDARD PLATE) is “inactive; negative”; the mutagenic call under setting [2] was “inactive; negative”; the mutagenic call (Test System: AMES SALMONELLA TYPHIMURIUM, Strain/Indicator: TA100, Method: STANDARD PLATE) was “inactive; negative”.
Regarding `C=CCSSSCC=C`, the mutagenic call (Test System: UDS RAT HEPATOCYTES, Strain/Indicator: THY INCORP, Metabolic Activation: NONE, Method: AUTORADIOGRAPHY) is “inactive; negative”.
Regarding `CCOC(=O)C(=NNc1ccc(-c2ccc(NN=C(C(=O)OCC)C(=O)OCC)cc2)cc1)C(=O)OCC`, the mutagenic call (Test System: AMES SALMONELLA TYPHIMURIUM, Strain/Indicator: TA98, Metabolic Activation: HAMSTER, LIVER, S-9, Method: PREINCUBATION (PRIVAL METHOD)) was “inactive; negative”.
With `C=C1C[C@@]23CC[C@H]4[C@@](C)(CCC[C@@]4(C)C(=O)O[C@@H]4O[C@H](CO)[C@@H](O)[C@H](O)[C@H]4O)[C@@H]2CC[C@]1(O[C@@H]1O[C@H](CO)[C@@H](O)[C@H](O[C@@H]2O[C@H](CO)[C@@H](O)[C@H](O)[C@H]2O)[C@H]1O[C@@H]1O[C@H](CO)[C@@H](O)[C@H](O)[C@H]1O)C3`, the mutagenic call (Test System: AMES SALMONELLA TYPHIMURIUM, Strain/Indicator: TM677, Metabolic Activation: RAT, LIVER, S-9, AROCLOR 1254, Method: PREINCUBATION) was “inactive; negative”.
As for `Fc1cnc2ccc3cccnc3c2c1`, the mutagenic call (Test System: AMES SALMONELLA TYPHIMURIUM, Strain/Indicator: TA100, Metabolic Activation: RAT, LIVER, S-9, PHENOBARBITAL AND 5,6-BENZOFLAVONE, Method: PREINCUBATION) was “active; positive”.
As for `CC(=O)N[C@@H](CS/C(Cl)=C/Cl)C(=O)O`, the mutagenic call by setting is: (Test System: AMES SALMONELLA TYPHIMURIUM, Strain/Indicator: TA2638, Metabolic Activation: NONE, Method: PREINCUBATION) “active; positive”; (Test System: AMES SALMONELLA TYPHIMURIUM, Strain/Indicator: TA2638, Metabolic Activation: RAT, KIDNEY, CYTOSOL, Method: PREINCUBATION) “active; positive”.
As for `O=C(Nc1ccccc1F)c1csc([N+](=O)[O-])c1`, the mutagenic call by setting is: under setting [1], “active; positive”; under setting [2], “active; positive”.
